Article PMC4710668, “Bioactivation of food genotoxicants 5-hydroxymethylfurfural and furfuryl alcohol by sulfotransferases from human, mouse and rat: a comparative study” (Archives of Toxicology, 2014)

Columns and labels:
Assay in all cases: HMF sulfoconjugation assay
rSult2a3 = format: biochemical, rat
Method: Cytosolic fractions containing individual SULT forms were prepared from transgenic S. typhimurium TA1538. Table S1 in the Supplementary Material provides a summary of the thirty SULTs used in the current study together with references describing the cloning of the respective S. typhimurium TA1538 strains. The expressed SULT forms are denoted with the prefixes h, m and r for human, mouse and rat enzymes, respectively. Bacteria were grown in Luria Broth medium containing ampicillin (100 µg/ml) by stirring for 8 h at 200 revolutions/min at 37 °C. The bacterial suspensions were centrifuged at 5,000 g for 10 min. The sediments were washed twice with 25 ml of 10 mM potassium phosphate buffer (pH 7.4)/50 mM potassium chloride (KCP buffer) and centrifuged again. The pellets were taken up in 800 µl KCP buffer and sonicated thrice for 15 s with 30 s pauses in between. The soluble fraction was attained by centrifuging for 1 h at 100,000 g. The supernatants (in the following termed cytosolic preparations) were frozen at −80 °C. The protein concentrations were determined according to a bicinchoninic acid (BCA) assay protocol. The SULT concentrations in the cytosolic preparations were estimated after electrophoretic separation and immunodetection using inclusion bodies of different SULT forms as standards (Teubner et al. [2007]). The preparation of SULT inclusion bodies and the immunodetection of SULTs is described in the Supplementary Material, which also contains a representative immunoblot of different amounts of rSult1a1standard and a cytosolic preparation of S. typhimurium expressing rSult1a1 (Fig. S1).
The reactions were conducted in mixtures of 100 µl containing 25–200 µg protein, 50 mM potassium phosphate buffer (pH 7.4), 5 mM MgCl2, 50 µM PAPS and different concentrations of HMF at 37 °C. Preliminary experiments ensured that measurements were recorded under ‘linear’ conditions, i.e., doubling of protein concentration or incubation time was doubling the amount of sulfate ester formed. The reactions were stopped after 30 min by adding 300 µl ice-cold 2-propanol, mixed and centrifuged at 15,000 g for 10 min.
SMF concentrations of the clear supernatants were analyzed by UPLC-MS/MS. The protocol was adapted from the quantification of SMF in plasma samples of HMF-treated mice (Monien et al. [2009]). In short, the supernatants were analyzed using a UPLC system (Waters) connected to a Quattro Premier XE tandem quadrupole mass spectrometer (Waters) using the negative electrospray ionization mode. Samples of 4 µl were injected into a HSS T3 column (1.8 µm, 2.1 × 100 mm; Waters) and eluted with an isocratic flow of 0.35 ml/min 10 mM ammonium acetate/methanol (95:5). The fragmentation reactions of SMF yielding two principal ions, the sulfate ion radical (m/z = 204.9 → 96.0) and the protonated sulfonate ion (m/z = 204.9 → 81.0) were monitored. The tune parameters were as follows: temperature of the electrospray source 120 °C; desolvation temperature 475 °C; desolvation gas nitrogen (800 l/h); cone gas nitrogen (100 l/h); collision gas argon (indicated cell pressure ~5 × 10^−3 mbar). For the fragmentation of SMF, collision energies were 20 and 23 eV for the transitions m/z = 204.9 → 81.0 and m/z = 204.9 → 96.0, respectively. The dwell time was set to 100 ms, and capillary voltage was set to 0.35 kV. The cone and RF1 lens voltages were 32 and 0.2 V, respectively. SMF was quantified using an external calibration line that was linear in the concentration range of 1.0 nM (4 fmol/injection) to 2,500 (10 pmol/injection) SMF (r ^2 ≥ 0.99). Data acquisition and handling were performed with MassLynx 4.1 software (Waters). The limit of detection (LOD) for this technique of 2.5 nM SMF has been reported (Monien et al. [2009]). In the current study, this corresponds to 10 fmol SMF per injection or a reaction rate of 0.5 pmol SMF/mg/min.

mSult1a1 = molecular target: T1, mSult1a1 (Mus musculus, UniProt P52840); format: biochemical
T1 construct: made in house; host or cells: Salmonella typhimurium TA1538 (cytosolic fraction, enzyme not purified)
How it was run: (§1)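 Cytosols of S. typhimurium TA1538 expressing single SULT forms (25–200 µg protein) were incubated with varied HMF, 50 µM PAPS, 5 mM MgCl2 in 50 mM potassium phosphate pH 7.4 at 37 °C for 30 min. SMF formed was quantified by UPLC-MS/MS against an external calibration line.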

hSULT1A2 = molecular target: T2, hSULT1A2 (Homo sapiens, UniProt P50226); format: biochemical
T2 construct: made in house; host or cells: Salmonella typhimurium TA1538 (cytosolic fraction, not purified)
How it was run: as §1

hSULT2B1b = molecular target: T3, hSULT2B1b (Homo sapiens, UniProt O00204); format: biochemical
T3 construct: made in house; host or cells: Salmonella typhimurium TA1538 (cytosolic fraction, not purified)
T3 sequence (O00204 1-365): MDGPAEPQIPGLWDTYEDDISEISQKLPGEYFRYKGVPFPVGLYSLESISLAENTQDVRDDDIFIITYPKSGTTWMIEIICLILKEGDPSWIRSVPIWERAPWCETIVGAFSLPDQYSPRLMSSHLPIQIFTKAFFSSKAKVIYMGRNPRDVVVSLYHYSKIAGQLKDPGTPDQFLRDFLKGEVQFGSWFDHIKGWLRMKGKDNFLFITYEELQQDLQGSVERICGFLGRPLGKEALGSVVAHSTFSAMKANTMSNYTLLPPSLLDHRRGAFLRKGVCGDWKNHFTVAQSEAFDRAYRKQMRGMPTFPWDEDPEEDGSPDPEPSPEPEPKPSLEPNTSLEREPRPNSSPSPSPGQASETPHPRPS
How it was run: as §1

rSult1b1 = molecular target: T4, rSult1b1 (Rattus norvegicus, UniProt P52847); format: biochemical
T4 construct: made in house; host or cells: Salmonella typhimurium TA1538 (cytosolic fraction, enzyme not purified)
How it was run: as §1

hSULT1C1 = molecular target: T5, hSULT1C1 (Homo sapiens, UniProt O00338); format: biochemical
T5 construct: made in house; host or cells: Salmonella typhimurium TA1538 (cytosolic fraction, not purified)
How it was run: as §1

rSult1c1 = molecular target: T6, rSult1c1 (Rattus norvegicus, UniProt P50237); format: biochemical
T6 construct: made in house; host or cells: Salmonella typhimurium TA1538 (cytosolic fraction, enzyme not purified)
How it was run: as §1

hSULT1A1 = molecular target: T7, hSULT1A1 (Homo sapiens, UniProt P50225); format: biochemical
T7 construct: made in house; host or cells: Salmonella typhimurium TA1538 (cytosolic fraction, not purified)
How it was run: as §1

[1] = HMF sulfoconjugation, Michaelis-Menten fit

T4 sequence (P52847 whole entry): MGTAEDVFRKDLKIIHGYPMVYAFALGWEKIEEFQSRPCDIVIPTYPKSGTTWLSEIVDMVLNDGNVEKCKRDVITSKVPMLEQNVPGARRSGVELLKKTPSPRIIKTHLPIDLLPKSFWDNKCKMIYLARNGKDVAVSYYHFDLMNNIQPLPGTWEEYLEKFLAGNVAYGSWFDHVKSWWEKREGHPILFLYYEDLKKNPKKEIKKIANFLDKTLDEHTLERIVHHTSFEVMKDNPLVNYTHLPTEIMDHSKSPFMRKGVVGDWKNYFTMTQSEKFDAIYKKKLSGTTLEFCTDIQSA
T5 sequence (O00338 whole entry): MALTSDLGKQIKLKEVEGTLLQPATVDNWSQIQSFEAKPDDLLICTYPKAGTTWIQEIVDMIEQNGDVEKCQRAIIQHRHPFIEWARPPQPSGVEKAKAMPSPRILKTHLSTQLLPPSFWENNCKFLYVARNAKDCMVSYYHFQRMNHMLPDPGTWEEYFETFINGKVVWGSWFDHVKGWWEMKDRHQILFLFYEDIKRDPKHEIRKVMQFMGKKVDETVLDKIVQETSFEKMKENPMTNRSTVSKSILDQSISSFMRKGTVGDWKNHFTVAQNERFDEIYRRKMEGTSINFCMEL
T6 sequence (P50237 whole entry): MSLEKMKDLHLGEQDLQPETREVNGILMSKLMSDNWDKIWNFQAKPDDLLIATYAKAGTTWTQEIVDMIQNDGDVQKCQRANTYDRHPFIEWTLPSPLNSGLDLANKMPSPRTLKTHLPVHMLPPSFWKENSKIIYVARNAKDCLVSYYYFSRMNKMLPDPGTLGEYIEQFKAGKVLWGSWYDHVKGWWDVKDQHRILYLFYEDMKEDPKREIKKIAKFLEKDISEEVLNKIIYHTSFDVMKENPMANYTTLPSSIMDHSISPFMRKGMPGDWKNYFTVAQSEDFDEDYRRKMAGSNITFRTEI
T7 sequence (P50225 whole entry): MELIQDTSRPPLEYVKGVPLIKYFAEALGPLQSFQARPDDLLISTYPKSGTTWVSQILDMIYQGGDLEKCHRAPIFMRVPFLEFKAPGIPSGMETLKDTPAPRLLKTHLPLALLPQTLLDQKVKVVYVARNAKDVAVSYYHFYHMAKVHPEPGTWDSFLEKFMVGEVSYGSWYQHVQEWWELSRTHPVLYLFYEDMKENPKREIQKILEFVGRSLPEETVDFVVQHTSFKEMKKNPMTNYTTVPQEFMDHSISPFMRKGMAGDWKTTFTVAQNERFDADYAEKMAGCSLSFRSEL
T2 sequence (P50226 whole entry): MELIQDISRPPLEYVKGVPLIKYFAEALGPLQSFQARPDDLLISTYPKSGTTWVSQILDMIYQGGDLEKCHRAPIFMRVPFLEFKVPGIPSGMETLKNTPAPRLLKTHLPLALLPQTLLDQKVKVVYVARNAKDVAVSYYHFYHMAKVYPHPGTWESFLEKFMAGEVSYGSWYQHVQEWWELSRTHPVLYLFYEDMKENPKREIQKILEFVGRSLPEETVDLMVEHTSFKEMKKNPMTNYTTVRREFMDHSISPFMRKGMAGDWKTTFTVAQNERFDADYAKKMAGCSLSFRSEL
T1 sequence (P52840 whole entry): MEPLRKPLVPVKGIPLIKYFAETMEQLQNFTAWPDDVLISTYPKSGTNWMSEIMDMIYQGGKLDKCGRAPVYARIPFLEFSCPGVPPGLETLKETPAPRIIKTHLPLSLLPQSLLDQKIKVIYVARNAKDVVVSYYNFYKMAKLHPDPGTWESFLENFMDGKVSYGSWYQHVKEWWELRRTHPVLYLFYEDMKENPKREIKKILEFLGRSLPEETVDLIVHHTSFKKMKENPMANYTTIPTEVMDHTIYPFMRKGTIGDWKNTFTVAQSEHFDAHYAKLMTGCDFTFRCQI

Compound `O=Cc1ccc(CO)o1` [HMF, 5-Hydroxymethylfurfural] has a Rate of sulfoconjugation (rSult2a3; 0.1 mM HMF) of 0.6 ± 0.0 pmol/mg/min, a Rate of sulfoconjugation (rSult2a3; 1 mM HMF) of 6.2 ± 0.2 pmol/mg/min and a Rate of sulfoconjugation (rSult2a3; 10 mM HMF) of 62.8 ± 4.6 pmol/mg/min. The Rate of sulfoconjugation (rSult2a3; 100 mM HMF) was 76.5 ± 8.8 pmol/mg/min, the Rate of sulfoconjugation (mSult1a1; 0.1 mM HMF) was 76.6 ± 14.4 pmol/mg/min and the Rate of sulfoconjugation (mSult1a1; 1 mM HMF) was 722 ± 93 pmol/mg/min. The Rate of sulfoconjugation (mSult1a1; 10 mM HMF) was 2,010 ± 210 pmol/mg/min, the Rate of sulfoconjugation (mSult1a1; 100 mM HMF) was 1,970 ± 70 pmol/mg/min and the “K M” value (mSult1a1; [1]) was 2.0 ± 0.3 mM. The Rate of sulfoconjugation (hSULT1A2; 0.1 mM HMF) was <0.5 pmol/mg/min, the Rate of sulfoconjugation (hSULT1A2; 1 mM HMF) was 15.2 ± 4.5 pmol/mg/min and the Rate of sulfoconjugation (hSULT1A2; 10 mM HMF) was 130 ± 53 pmol/mg/min. For the same compound, the Rate of sulfoconjugation (hSULT1A2; 100 mM HMF) was 628 ± 233 pmol/mg/min, the “K M” value (hSULT1A2; [1]) was 56.5 ± 5.4 mM and the Rate of sulfoconjugation (hSULT2B1b; 0.1 mM HMF) was <0.5 pmol/mg/min. The Rate of sulfoconjugation (hSULT2B1b; 1 mM HMF) was <0.5 pmol/mg/min, the Rate of sulfoconjugation (hSULT2B1b; 10 mM HMF) was <0.5 pmol/mg/min and the Rate of sulfoconjugation (hSULT2B1b; 100 mM HMF) was <0.5 pmol/mg/min. For the same compound, the Rate of sulfoconjugation (rSult1b1; 0.1 mM HMF) was <0.5 pmol/mg/min, the Rate of sulfoconjugation (rSult1b1; 1 mM HMF) was 3.4 ± 0.2 pmol/mg/min and the Rate of sulfoconjugation (rSult1b1; 10 mM HMF) was 25.2 ± 0.4 pmol/mg/min. The Rate of sulfoconjugation (rSult1b1; 100 mM HMF) was 30.8 ± 1.2 pmol/mg/min, the “K M” value (rSult1b1; [1]) was 15.7 ± 0.9 mM and the Rate of sulfoconjugation (hSULT1C1; 0.1 mM HMF) was <0.5 pmol/mg/min. The Rate of sulfoconjugation (hSULT1C1; 1 mM HMF) was <0.5 pmol/mg/min, the Rate of sulfoconjugation (hSULT1C1; 10 mM HMF) was 4.7 ± 0.3 pmol/mg/min and the Rate of sulfoconjugation (hSULT1C1; 100 mM HMF) was 11.0 ± 1.4 pmol/mg/min. The Rate of sulfoconjugation (rSult1c1; 0.1 mM HMF) was 2.1 ± 1.3 pmol/mg/min, the Rate of sulfoconjugation (rSult1c1; 1 mM HMF) was 29.1 ± 9.0 pmol/mg/min and the Rate of sulfoconjugation (rSult1c1; 10 mM HMF) was 120 ± 39 pmol/mg/min. The Rate of sulfoconjugation (rSult1c1; 100 mM HMF) was 47.5 ± 27.3 pmol/mg/min, the “K M” value (rSult1c1; HMF sulfoconjugation, extended Michaelis-Menten equation with substrate inhibition) was 18.4 ± 4.7 mM and the “ratio of HMF sulfoconjugation efficiency, hSULT1A1 vs hSULT1C2” value (hSULT1A1) was “about 19 times”. The Rate of sulfoconjugation (hSULT1A1; 0.1 mM HMF) was 20.4 ± 2.8 pmol/mg/min, the Rate of sulfoconjugation (hSULT1A1; 1 mM HMF) was 171 ± 18 pmol/mg/min and the Rate of sulfoconjugation (hSULT1A1; 10 mM HMF) was 641 ± 100 pmol/mg/min. For the same compound, the Rate of sulfoconjugation (hSULT1A1; 100 mM HMF) was 699 ± 170 pmol/mg/min and the “K M” value (hSULT1A1; [1]) was 3.2 ± 0.4 mM.
